Results on two compounds are retold here after article PMC11167047 (Cell Death Discovery, 2024).

Each structure is given as a SMILES string.

Common to all, as to test: kinome screen (33PanQinase)
What all share (format): biochemical

The target in one experiment is T1, FYN (Homo sapiens, UniProt P06241).
T1 construct: purchased Reaction Biology Europe GmbH (formerly ProQinase)
As to the method: (§1) The Kinome Screening was performed by Reaction Biology Europe GmbH (http://reactionbiology.com; Freiburg i. Br., Germany).

The next experiment addresses T2, SIK1 (Homo sapiens, UniProt P57059).
T2 construct: purchased Reaction Biology Europe GmbH (formerly ProQinase)
As to the method:
as §1

The next experiment deals with T3, CDK17/p35NCK (Homo sapiens, UniProt Q00537).
T3 construct: purchased Reaction Biology Europe GmbH (formerly ProQinase)
As to the method:
as §1

In the next experiment the target is T4, VEGFR3 (Homo sapiens, UniProt P35916).
T4 construct: purchased Reaction Biology Europe GmbH (formerly ProQinase)
As to the method: as §1

The target of the next experiment is T5, CDK16/CycY (Homo sapiens, UniProt Q00536).
T5 construct: purchased Reaction Biology Europe GmbH (formerly ProQinase)
As to the method:
as §1

In the next experiment the target is T6, AKT2 (Homo sapiens, UniProt P31751).
T6 construct: purchased Reaction Biology Europe GmbH (formerly ProQinase)
As to the method:
as §1

The target in a further experiment is T7, BRSK1 (Homo sapiens, UniProt Q8TDC3).
T7 construct: purchased Reaction Biology Europe GmbH (formerly ProQinase)
T7 sequence (Q8TDC3 1-778): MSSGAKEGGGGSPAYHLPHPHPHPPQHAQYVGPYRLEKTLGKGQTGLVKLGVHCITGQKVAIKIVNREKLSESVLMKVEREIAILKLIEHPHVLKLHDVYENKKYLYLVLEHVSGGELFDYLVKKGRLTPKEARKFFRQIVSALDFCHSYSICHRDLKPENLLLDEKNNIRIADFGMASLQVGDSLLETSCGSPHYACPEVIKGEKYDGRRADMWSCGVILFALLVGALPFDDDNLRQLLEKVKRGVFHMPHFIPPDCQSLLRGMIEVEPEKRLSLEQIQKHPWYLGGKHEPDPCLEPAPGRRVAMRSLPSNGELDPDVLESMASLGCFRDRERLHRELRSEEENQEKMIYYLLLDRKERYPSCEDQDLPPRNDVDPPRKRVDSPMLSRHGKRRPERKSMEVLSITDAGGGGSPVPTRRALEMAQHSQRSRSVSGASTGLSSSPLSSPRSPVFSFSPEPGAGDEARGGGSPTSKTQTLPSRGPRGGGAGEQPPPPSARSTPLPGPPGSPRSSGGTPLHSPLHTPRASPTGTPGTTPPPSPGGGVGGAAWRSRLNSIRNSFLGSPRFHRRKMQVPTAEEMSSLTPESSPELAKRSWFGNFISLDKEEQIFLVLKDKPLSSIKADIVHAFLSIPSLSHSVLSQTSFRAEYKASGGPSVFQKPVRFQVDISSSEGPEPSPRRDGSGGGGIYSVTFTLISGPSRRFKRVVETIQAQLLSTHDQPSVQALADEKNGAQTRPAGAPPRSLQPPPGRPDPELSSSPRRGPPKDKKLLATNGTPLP
As to the method: as §1

A further experiment has as its target T8, PHKG1 (Homo sapiens, UniProt Q16816).
T8 construct: purchased Reaction Biology Europe GmbH (formerly ProQinase)
As to the method:
as §1

For another experiment, the target named is T9, DCAMKL2 (Homo sapiens, UniProt Q8N568).
T9 construct: purchased Reaction Biology Europe GmbH (formerly ProQinase)
T9 sequence (Q8N568 1-766): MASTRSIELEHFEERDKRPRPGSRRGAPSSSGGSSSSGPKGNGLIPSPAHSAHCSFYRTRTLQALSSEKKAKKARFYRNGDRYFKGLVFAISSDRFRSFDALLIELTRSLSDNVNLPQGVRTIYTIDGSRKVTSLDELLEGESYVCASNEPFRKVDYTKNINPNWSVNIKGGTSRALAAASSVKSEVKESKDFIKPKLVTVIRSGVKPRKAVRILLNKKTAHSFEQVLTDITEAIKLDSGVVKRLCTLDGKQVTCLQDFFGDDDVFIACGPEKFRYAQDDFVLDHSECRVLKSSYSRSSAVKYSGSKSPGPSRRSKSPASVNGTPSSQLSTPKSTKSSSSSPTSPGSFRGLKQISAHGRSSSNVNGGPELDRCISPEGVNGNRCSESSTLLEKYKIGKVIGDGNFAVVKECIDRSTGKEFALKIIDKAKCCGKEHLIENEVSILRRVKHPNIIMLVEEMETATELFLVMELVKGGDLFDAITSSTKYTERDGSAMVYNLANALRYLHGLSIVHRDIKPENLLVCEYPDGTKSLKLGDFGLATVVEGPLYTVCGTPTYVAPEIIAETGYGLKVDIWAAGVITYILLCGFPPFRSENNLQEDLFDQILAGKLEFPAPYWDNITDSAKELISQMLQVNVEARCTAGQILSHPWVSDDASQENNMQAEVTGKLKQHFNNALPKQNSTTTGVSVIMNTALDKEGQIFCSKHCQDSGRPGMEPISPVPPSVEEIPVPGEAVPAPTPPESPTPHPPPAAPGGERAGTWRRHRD
As to the method:
as §1

A further experiment has as its target T10, ARK5 (Homo sapiens, UniProt O60285).
T10 construct: purchased Reaction Biology Europe GmbH (formerly ProQinase)
T10 sequence (O60285 1-661): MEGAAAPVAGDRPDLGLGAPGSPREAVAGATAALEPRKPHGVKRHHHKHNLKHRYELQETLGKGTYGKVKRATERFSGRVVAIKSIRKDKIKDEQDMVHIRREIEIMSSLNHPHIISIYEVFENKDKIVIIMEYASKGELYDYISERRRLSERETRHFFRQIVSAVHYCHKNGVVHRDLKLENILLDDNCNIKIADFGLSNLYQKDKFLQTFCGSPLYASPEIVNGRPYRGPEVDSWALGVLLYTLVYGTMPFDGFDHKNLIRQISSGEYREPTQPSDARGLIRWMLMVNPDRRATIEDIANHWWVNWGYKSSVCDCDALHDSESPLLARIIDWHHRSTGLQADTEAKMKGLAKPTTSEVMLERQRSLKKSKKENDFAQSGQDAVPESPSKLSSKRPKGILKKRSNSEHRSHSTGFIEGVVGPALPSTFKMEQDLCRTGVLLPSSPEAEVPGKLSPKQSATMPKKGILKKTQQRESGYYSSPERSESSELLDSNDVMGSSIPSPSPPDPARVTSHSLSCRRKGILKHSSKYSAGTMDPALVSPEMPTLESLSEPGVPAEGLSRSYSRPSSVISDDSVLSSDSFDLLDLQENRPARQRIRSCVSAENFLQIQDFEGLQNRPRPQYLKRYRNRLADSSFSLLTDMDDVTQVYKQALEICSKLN
As to the method:
as §1

The target in another experiment is T11, BRAF (Homo sapiens, UniProt P15056).
T11 construct: purchased Reaction Biology Europe GmbH (formerly ProQinase)
As to the method: as §1

T8 sequence (Q16816 whole entry): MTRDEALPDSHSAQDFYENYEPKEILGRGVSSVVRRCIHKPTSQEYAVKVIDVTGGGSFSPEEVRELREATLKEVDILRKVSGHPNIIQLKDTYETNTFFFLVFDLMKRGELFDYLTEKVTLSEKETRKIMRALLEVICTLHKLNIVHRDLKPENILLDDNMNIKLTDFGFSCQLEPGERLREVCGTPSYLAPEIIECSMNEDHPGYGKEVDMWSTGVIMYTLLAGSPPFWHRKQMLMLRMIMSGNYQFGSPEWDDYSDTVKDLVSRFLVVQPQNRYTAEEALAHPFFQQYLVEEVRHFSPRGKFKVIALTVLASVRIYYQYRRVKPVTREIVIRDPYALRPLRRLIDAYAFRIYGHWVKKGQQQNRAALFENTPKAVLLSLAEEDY
T2 sequence (P57059 whole entry): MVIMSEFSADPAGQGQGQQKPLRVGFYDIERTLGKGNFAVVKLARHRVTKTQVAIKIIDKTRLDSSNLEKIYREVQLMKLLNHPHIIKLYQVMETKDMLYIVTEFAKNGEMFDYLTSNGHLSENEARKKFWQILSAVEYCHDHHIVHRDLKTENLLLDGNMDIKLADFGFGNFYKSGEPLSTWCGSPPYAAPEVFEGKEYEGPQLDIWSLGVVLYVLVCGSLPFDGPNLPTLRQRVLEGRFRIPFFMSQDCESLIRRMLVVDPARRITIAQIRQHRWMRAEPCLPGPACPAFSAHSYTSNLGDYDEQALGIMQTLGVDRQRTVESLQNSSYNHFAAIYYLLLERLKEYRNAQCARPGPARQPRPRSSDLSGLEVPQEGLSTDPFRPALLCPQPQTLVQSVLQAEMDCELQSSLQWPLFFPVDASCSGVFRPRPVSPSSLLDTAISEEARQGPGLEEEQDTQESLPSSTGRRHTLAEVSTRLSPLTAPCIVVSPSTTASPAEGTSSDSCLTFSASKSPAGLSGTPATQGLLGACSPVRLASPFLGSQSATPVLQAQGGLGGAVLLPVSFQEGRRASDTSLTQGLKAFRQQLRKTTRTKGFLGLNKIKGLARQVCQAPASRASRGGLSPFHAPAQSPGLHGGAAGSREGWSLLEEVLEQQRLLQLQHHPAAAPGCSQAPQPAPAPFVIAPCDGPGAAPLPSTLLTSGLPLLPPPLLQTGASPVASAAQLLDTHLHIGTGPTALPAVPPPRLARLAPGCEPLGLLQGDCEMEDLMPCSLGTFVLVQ
T5 sequence (Q00536 whole entry): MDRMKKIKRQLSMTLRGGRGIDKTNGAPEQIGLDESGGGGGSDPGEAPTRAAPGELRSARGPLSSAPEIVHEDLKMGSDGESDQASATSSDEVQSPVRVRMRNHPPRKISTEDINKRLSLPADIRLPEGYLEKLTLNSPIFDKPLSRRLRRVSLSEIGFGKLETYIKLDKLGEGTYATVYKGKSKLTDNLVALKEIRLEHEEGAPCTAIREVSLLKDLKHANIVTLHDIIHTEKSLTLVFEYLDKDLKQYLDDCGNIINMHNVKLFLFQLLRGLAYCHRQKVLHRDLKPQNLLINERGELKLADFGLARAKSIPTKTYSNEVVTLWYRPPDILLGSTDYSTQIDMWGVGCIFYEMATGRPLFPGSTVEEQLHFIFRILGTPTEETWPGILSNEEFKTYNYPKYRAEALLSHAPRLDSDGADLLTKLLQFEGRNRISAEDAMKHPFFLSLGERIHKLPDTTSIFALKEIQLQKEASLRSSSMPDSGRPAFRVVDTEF
T5 sequence (Q8ND76 whole entry partner): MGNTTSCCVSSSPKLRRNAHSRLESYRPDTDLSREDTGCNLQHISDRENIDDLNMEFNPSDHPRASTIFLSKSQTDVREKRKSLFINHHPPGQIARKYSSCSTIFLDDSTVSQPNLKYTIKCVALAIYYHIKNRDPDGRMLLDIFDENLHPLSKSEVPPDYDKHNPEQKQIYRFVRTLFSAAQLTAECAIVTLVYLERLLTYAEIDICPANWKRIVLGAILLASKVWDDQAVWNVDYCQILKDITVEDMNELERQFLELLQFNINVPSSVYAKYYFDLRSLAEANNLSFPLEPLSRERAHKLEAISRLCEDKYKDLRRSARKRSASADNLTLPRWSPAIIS
T3 sequence (Q00537 whole entry): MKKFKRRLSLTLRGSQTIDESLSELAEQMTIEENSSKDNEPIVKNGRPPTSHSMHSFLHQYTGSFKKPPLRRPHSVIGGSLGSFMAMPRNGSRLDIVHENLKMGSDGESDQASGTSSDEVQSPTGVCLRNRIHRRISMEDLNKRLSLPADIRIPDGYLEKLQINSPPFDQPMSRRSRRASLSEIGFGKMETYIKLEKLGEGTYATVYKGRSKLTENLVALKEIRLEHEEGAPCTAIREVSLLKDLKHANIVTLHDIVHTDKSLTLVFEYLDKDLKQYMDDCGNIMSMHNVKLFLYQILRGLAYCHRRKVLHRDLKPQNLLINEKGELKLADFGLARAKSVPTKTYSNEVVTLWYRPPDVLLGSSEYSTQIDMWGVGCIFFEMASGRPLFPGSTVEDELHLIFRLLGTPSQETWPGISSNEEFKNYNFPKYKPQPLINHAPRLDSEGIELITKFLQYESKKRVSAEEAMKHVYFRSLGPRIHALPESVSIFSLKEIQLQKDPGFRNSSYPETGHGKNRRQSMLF
T3 sequence (Q15078 whole entry partner): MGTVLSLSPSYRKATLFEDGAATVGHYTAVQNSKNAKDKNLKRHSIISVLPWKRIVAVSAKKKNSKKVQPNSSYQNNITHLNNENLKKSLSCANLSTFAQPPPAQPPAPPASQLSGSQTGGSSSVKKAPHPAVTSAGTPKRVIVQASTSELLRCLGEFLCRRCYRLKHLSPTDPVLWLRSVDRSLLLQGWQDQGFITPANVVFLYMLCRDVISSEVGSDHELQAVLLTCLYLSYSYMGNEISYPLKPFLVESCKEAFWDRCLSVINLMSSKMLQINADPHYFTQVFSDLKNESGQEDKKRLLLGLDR
T6 sequence (P31751 whole entry): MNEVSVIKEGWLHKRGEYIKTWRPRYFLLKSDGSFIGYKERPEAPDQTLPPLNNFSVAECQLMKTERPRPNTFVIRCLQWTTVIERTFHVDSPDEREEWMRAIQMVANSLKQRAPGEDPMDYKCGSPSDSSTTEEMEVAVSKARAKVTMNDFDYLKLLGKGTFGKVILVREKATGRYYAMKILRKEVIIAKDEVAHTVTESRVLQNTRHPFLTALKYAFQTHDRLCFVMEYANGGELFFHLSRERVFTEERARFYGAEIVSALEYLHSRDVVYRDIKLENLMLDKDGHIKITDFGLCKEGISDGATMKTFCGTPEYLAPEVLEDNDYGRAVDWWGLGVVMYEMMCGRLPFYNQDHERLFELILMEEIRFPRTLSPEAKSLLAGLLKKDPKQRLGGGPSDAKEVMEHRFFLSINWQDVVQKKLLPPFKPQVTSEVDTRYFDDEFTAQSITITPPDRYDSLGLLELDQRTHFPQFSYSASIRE
T4 sequence (P35916 25-1363): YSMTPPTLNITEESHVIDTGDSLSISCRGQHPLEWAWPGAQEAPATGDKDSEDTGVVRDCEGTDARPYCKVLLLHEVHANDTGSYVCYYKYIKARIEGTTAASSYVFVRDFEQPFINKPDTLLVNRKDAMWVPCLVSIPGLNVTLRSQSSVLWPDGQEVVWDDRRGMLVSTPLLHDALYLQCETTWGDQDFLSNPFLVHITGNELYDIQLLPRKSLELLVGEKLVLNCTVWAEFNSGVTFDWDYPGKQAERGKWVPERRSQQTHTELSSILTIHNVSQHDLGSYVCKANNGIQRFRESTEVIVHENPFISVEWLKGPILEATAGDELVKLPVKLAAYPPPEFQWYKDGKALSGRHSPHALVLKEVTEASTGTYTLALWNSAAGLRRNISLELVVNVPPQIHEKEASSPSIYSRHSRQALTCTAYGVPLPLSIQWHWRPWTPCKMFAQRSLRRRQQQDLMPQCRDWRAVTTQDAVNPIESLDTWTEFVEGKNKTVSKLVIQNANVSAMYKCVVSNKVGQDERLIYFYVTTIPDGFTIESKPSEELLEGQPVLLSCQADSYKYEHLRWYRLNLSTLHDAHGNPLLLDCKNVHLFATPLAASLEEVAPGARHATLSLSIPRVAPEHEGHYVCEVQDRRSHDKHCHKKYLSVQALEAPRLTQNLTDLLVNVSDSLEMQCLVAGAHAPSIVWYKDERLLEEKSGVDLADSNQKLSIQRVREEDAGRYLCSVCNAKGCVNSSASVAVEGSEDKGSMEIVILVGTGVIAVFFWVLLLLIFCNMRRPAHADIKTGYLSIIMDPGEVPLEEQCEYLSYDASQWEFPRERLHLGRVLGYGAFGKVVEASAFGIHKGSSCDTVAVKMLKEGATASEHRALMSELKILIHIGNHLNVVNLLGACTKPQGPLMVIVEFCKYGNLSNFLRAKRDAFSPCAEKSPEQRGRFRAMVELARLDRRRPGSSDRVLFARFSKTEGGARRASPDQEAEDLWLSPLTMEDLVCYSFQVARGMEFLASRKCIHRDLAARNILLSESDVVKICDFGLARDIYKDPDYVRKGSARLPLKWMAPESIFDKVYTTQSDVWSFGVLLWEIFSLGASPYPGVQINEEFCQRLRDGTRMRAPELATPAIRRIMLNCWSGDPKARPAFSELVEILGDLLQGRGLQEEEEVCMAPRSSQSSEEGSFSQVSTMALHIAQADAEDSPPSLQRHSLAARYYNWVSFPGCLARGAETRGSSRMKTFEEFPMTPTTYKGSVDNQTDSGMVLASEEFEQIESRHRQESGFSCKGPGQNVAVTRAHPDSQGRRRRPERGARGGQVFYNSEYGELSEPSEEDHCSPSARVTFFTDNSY

In the case of `c1ccc(CNc2cc(-c3c[nH]c4ncccc34)ccn2)cc1` [meriolin 36], the residual kinase activity at FYN (0.3 µM) was 22 % of control; on FYN (3 µM), 3 % of control; at SIK1 (0.3 µM) it was 87 % of control; on SIK1 (3 µM) it was 48 % of control; at CDK17/p35NCK (0.3 µM), 20 % of control; on CDK17/p35NCK (3 µM), 10 % of control. Besides, the residual kinase activity at VEGFR3 (0.3 µM) was 64 % of control; at VEGFR3 (3 µM), 23 % of control; on CDK16/CycY (0.3 µM) it was 17 % of control; at CDK16/CycY (3 µM), 3 % of control; at AKT2 (0.3 µM), 102 % of control; on AKT2 (3 µM), 75 % of control. Also, the residual kinase activity is reported as 89 % of control on BRSK1 (0.3 µM); 73 % of control at BRSK1 (3 µM); 16 % of control on PHKG1 (0.3 µM); 2 % of control at PHKG1 (3 µM); 91 % of control at DCAMKL2 (0.3 µM); 81 % of control at DCAMKL2 (3 µM). Also, the residual kinase activity at ARK5 (0.3 µM) is given as 90 % of control; on ARK5 (3 µM), 40 % of control; at BRAF (0.3 µM) it was 66 % of control; at BRAF (3 µM), 50 % of control.

For the compound `COc1ccnc2[nH]cc(-c3cc(N)nc(N)c3)c12` [meriolin 16], the residual kinase activity on FYN (0.03 µM) is recorded as 93 % of control; on FYN (0.3 µM), 69 % of control; on SIK1 (0.03 µM), 102 % of control; at SIK1 (0.3 µM) it was 98 % of control; at CDK17/p35NCK (0.03 µM), 46 % of control; on CDK17/p35NCK (0.3 µM), 24 % of control. Moreover, the residual kinase activity was 90 % of control on VEGFR3 (0.03 µM); 77 % of control at VEGFR3 (0.3 µM); 64 % of control on CDK16/CycY (0.03 µM); 16 % of control at CDK16/CycY (0.3 µM); 98 % of control at AKT2 (0.03 µM); 79 % of control at AKT2 (0.3 µM). The residual kinase activity on BRSK1 (0.03 µM) is 91 % of control; at BRSK1 (0.3 µM), 97 % of control; on PHKG1 (0.03 µM) it was 85 % of control; on PHKG1 (0.3 µM), 39 % of control; at DCAMKL2 (0.03 µM), 92 % of control; at DCAMKL2 (0.3 µM), 85 % of control. For the same compound, the residual kinase activity on ARK5 (0.03 µM) is given as 92 % of control; at ARK5 (0.3 µM), 88 % of control; on BRAF (0.03 µM), 94 % of control.
